# According to publication PMC10322960 (European Journal of Drug Metabolism and Pharmacokinetics, 2023):
# Test system: CYP1A2, CYP2A6, CYP2B6, CYP2C8, CYP2C9, CYP2C19, CYP2D6, CYP2E1, and CYP4A11
# Test: Recombinant CYP incubation
# Assay type: in vitro ADME, human
# Conditions: 3 µm ocedurenone, NADPH, 60 min
smiles,measurement,value
"N#Cc1ccc(N2N=C3c4ccc(C(=O)N5CCC(O)CC5)nc4CC[C@@H]3[C@@H]2C2CCCC2)cc1Cl [Ocedurenone, ocedurenone]",metabolism in incubations with other recombinant CYP isoenzymes,minor metabolism
